Assays:
Type in all cases: in vivo
[1] = test system: giant foxtail (Setaria faberii); test: Test B pre-/postemergence; parameters: key: 0 is no effect; 10 is complete control
Outline: (§1)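 Scored visually 0 (none) to 10 (complete control) against untreated plants after twelve to sixteen greenhouse days. Test chemicals, formulated in surfactant-containing non-phytotoxic solvent, applied to soil after planting and, separately, onto 1- to 4-leaf (2–18 cm) plants.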

[2] = test system: bedstraw (Galium aparine); test: Test B pre-/postemergence; parameters: key: 0 is no effect; 10 is complete control; conditions: for Bedstraw plant response rating: Preemergence
Outline: as §1

[3] = test system: purple nutsedge (Cyperus rotundus); test: Test B pre-/postemergence; parameters: key: 0 is no effect; 10 is complete control
Outline: as §1

[4] = test system: sugar beet (Beta vulgaris); test: Test B pre-/postemergence; parameters: key: 0 is no effect; 10 is complete control
Outline: as §1

rape (Brassica napus) = test: Test B pre-/postemergence; parameters: key: 0 is no effect; 10 is complete control
Outline: as §1

[5] = test system: velvetleaf (Abutilon theophrasti); test: Test B pre-/postemergence; parameters: key: 0 is no effect; 10 is complete control
Outline: as §1

[6] = test system: momingglory (Ipomoea hederacea); test: Test B pre-/postemergence; parameters: key: 0 is no effect; 10 is complete control
Outline: as §1

wild oat (Avena fatua) = test: Test B pre-/postemergence; parameters: key: 0 is no effect; 10 is complete control
Outline: as §1

[7] = test system: cocklebur (Xanthium strumarium); test: Test B pre-/postemergence; parameters: key: 0 is no effect; 10 is complete control; conditions: for Cocklebur plant response rating: Preemergence
Outline: as §1

corn (Zea mays) = test: Test B pre-/postemergence; parameters: key: 0 is no effect; 10 is complete control; conditions: for Corn plant response rating: Preemergence
Outline: as §1

[8] = test system: pigweed (Amaranthus retroflexus); test: Test B pre-/postemergence; parameters: key: 0 is no effect; 10 is complete control
Outline: as §1

[9] = test system: blackgrass (Alopecurus myosuroides); test: Test B pre-/postemergence; parameters: key: 0 is no effect; 10 is complete control; conditions: for Blackgrass plant response rating: Preemergence
Outline: as §1

[10] = test system: wheat (Triticum aestivum); test: Test B pre-/postemergence; parameters: key: 0 is no effect; 10 is complete control
Outline: as §1

[11] = test system: broadleaf signalgrass (Brachiaria decumbens); test: Test B pre-/postemergence; parameters: key: 0 is no effect; 10 is complete control; conditions: for B. signalgrass plant response rating: Preemergence
Outline: as §1

[12] = test system: crabgrass (Digitaria sanguinalis); test: Test B pre-/postemergence; parameters: key: 0 is no effect; 10 is complete control; conditions: for Crabgrass plant response rating: Preemergence
Outline: as §1

soybean (Glycine max) = test: Test B pre-/postemergence; parameters: key: 0 is no effect; 10 is complete control
Outline: as §1

[13] = test system: smallflower flatsedge (Cyperus difformis); test: Test B flood test
Outline: (§2)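 Flood test on plants grown to the 2-leaf stage; treated plants kept in greenhouse twelve to sixteen days, then visually rated against controls on a 0 (no effect) to 10 (complete control) scale.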

[14] = test system: bamyardgrass (Echinochloa crus-galli); test: Test B flood test
Outline: as §2

rice (Oryza sativa) = test: Test B flood test
Outline: as §2

[15] = test system: duck salad (Heteranthera limosa); test: Test B flood test
Outline: as §2

[16] = Rate 250 g/ha, Postemergence (so in the source)
[17] = Rate 62 g/ha, Postemergence (flood test)
[18] = Rate 125 g/ha, Postemergence section (flood test species)
[19] = Rate 250 g/ha, Postemergence (flood test species)
[20] = Rate 500 g/ha, Postemergence (flood test species)
[21] = Rate 125 g/ha, Postemergence, flood test

Cc1cnc(-c2ccc(C(F)(F)F)cc2)nc1Cc1cccc(C#N)c1 [Compound 32]
Plant response rating, Giant foxtail ([1]; Rate 62 g/ha, Postemergence): 1 | Giant foxtail plant response rating ([1]; Rate 62 g/ha, Preemergence): 1 | Giant foxtail plant response rating ([1]; Rate 125 g/ha, Postemergence): 1 | Giant foxtail plant response rating ([1]; Rate 125 g/ha, Preemergence): 2 | Plant response rating, Giant foxtail ([1]; Rate 250 g/ha, Postemergence): 2 | Plant response rating, Giant foxtail [1, 16]: 5 | Plant response rating, Bedstraw ([2]; Rate 62 g/ha, Postemergence): 6 | Bedstraw plant response rating ([2]; Rate 62 g/ha): 3 | Plant response rating, Bedstraw ([2]; Rate 125 g/ha, Postemergence): 6 | Bedstraw plant response rating ([2]; Rate 125 g/ha): 8 | Plant response rating, Bedstraw ([2]; Rate 250 g/ha, Postemergence): 10 | Plant response rating, Bedstraw [2, 16]: 10 | Plant response rating, Nutsedge ([3]; Rate 62 g/ha, Postemergence): 0 | Nutsedge plant response rating ([3]; Rate 62 g/ha, Preemergence): 0 | Nutsedge plant response rating ([3]; Rate 125 g/ha, Postemergence): 0 | Nutsedge plant response rating ([3]; Rate 125 g/ha, Preemergence): 0 | Plant response rating, Nutsedge ([3]; Rate 250 g/ha, Postemergence): 1 | Plant response rating, Nutsedge [3, 16]: 0 | Plant response rating, Sugarbeets ([4]; Rate 62 g/ha, Postemergence): 9 | Sugarbeets plant response rating ([4]; Rate 62 g/ha, Preemergence): 8 | Sugarbeets plant response rating ([4]; Rate 125 g/ha, Postemergence): 10 | Plant response rating, Sugarbeets ([4]; Rate 125 g/ha, Preemergence): 10 | Plant response rating, Sugarbeets ([4]; Rate 250 g/ha, Postemergence): 10 | Plant response rating, Sugarbeets [4, 16]: 10 | Plant response rating, Rape (rape (Brassica napus); Rate 62 g/ha, Postemergence): 8 | Rape plant response rating (rape (Brassica napus); Rate 62 g/ha, Preemergence): 2 | Rape plant response rating (rape (Brassica napus); Rate 125 g/ha, Postemergence): 8 | Rape plant response rating (rape (Brassica napus); Rate 125 g/ha, Preemergence): 10 | Plant response rating, Rape (rape (Brassica napus); Rate 250 g/ha, Postemergence): 8 | Plant response rating, Rape (rape (Brassica napus); [16]): 10 | Plant response rating, Velvetleaf ([5]; Rate 62 g/ha, Postemergence): 4 | Velvetleaf plant response rating ([5]; Rate 62 g/ha, Preemergence): 6 | Velvetleaf plant response rating ([5]; Rate 125 g/ha, Postemergence): 8 | Plant response rating, Velvetleaf ([5]; Rate 125 g/ha, Preemergence): 9 | Plant response rating, Velvetleaf ([5]; Rate 250 g/ha, Postemergence): 9 | Plant response rating, Velvetleaf [5, 16]: 10 | Plant response rating, Morningglory ([6]; Rate 62 g/ha, Postemergence): 7 | Morningglory plant response rating ([6]; Rate 62 g/ha, Preemergence): 1 | Morningglory plant response rating ([6]; Rate 125 g/ha, Postemergence): 8 | Morningglory plant response rating ([6]; Rate 125 g/ha, Preemergence): 2 | Plant response rating, Morningglory ([6]; Rate 250 g/ha, Postemergence): 10 | Plant response rating, Morningglory [6, 16]: 3 | Wild oats plant response rating (wild oat (Avena fatua); Rate 62 g/ha, Postemergence): 1 | Wild oats plant response rating (wild oat (Avena fatua); Rate 62 g/ha, Preemergence): 2 | Wild oats plant response rating (wild oat (Avena fatua); Rate 125 g/ha, Postemergence): 3 | Plant response rating, Wild oats (wild oat (Avena fatua); Rate 125 g/ha, Preemergence): 3 | Plant response rating, Wild oats (wild oat (Avena fatua); Rate 250 g/ha, Postemergence): 3 | Plant response rating, Wild oats (wild oat (Avena fatua); [16]): 4 | Plant response rating, Cocklebur ([7]; Rate 62 g/ha, Postemergence): 8 | Cocklebur plant response rating ([7]; Rate 62 g/ha): 0 | Plant response rating, Cocklebur ([7]; Rate 125 g/ha, Postemergence): 8 | Cocklebur plant response rating ([7]; Rate 125 g/ha): 0 | Plant response rating, Cocklebur ([7]; Rate 250 g/ha, Postemergence): 9 | Plant response rating, Cocklebur [7, 16]: 0 | Plant response rating, Corn (corn (Zea mays); Rate 62 g/ha, Postemergence): 1 | Corn plant response rating (corn (Zea mays); Rate 62 g/ha): 0 | Plant response rating, Corn (corn (Zea mays); Rate 125 g/ha, Postemergence): 1 | Corn plant response rating (corn (Zea mays); Rate 125 g/ha): 0 | Plant response rating, Corn (corn (Zea mays); Rate 250 g/ha, Postemergence): 1 | Plant response rating, Corn (corn (Zea mays); [16]): 0 | Plant response rating, Redroot pigweed ([8]; Rate 62 g/ha, Postemergence): 6 | Redroot pigweed plant response rating ([8]; Rate 62 g/ha, Preemergence): 8 | Redroot pigweed plant response rating ([8]; Rate 125 g/ha, Postemergence): 9 | Redroot pigweed plant response rating ([8]; Rate 125 g/ha, Preemergence): 10 | Plant response rating, Redroot pigweed ([8]; Rate 250 g/ha, Postemergence): 9 | Plant response rating, Redroot pigweed [8, 16]: 10 | Plant response rating, Blackgrass ([9]; Rate 62 g/ha, Postemergence): 1 | Blackgrass plant response rating ([9]; Rate 62 g/ha): 1 | Plant response rating, Blackgrass ([9]; Rate 125 g/ha, Postemergence): 2 | Blackgrass plant response rating ([9]; Rate 125 g/ha): 2 | Plant response rating, Blackgrass ([9]; Rate 250 g/ha, Postemergence): 5 | Plant response rating, Blackgrass [9, 16]: 4 | Wheat plant response rating ([10]; Rate 62 g/ha, Postemergence): 1 | Wheat plant response rating ([10]; Rate 62 g/ha, Preemergence): 0 | Wheat plant response rating ([10]; Rate 125 g/ha, Postemergence): 2 | Plant response rating, Wheat ([10]; Rate 125 g/ha, Preemergence): 0 | Plant response rating, Wheat ([10]; Rate 250 g/ha, Postemergence): 2 | Plant response rating, Wheat [10, 16]: 0 | Plant response rating, B. signalgrass ([11]; Rate 62 g/ha, Postemergence): 1 | B. signalgrass plant response rating ([11]; Rate 62 g/ha): 2 | Plant response rating, B. signalgrass ([11]; Rate 125 g/ha, Postemergence): 2 | B. signalgrass plant response rating ([11]; Rate 125 g/ha): 6 | Plant response rating, B. signalgrass ([11]; Rate 250 g/ha, Postemergence): 2 | Plant response rating, B. signalgrass ([11]; Rate 250 g/ha, Postemergence as printed in head r139 (second section for compounds 26-50)): 7 | Plant response rating, Crabgrass ([12]; Rate 62 g/ha, Postemergence): 1 | Crabgrass plant response rating ([12]; Rate 62 g/ha): 1 | Plant response rating, Crabgrass ([12]; Rate 125 g/ha, Postemergence): 2 | Crabgrass plant response rating ([12]; Rate 125 g/ha): 1 | Plant response rating, Crabgrass ([12]; Rate 250 g/ha, Postemergence): 2 | Plant response rating, Crabgrass [12, 16]: 3 | Plant response rating, Soybean (soybean (Glycine max); Rate 62 g/ha, Postemergence): 4 | Soybean plant response rating (soybean (Glycine max); Rate 62 g/ha, Preemergence): 0 | Soybean plant response rating (soybean (Glycine max); Rate 125 g/ha, Postemergence): 5 | Plant response rating, Soybean (soybean (Glycine max); Rate 125 g/ha, Preemergence): 0 | Plant response rating, Soybean (soybean (Glycine max); Rate 250 g/ha, Postemergence): 6 | Plant response rating, Soybean (soybean (Glycine max); [16]): 1 | Plant response rating, S. Flatsedge [13, 17]: 2 | S. Flatsedge plant response rating [13, 18]: 5 | Plant response rating, S. Flatsedge [13, 19]: 6 | Plant response rating, S. Flatsedge [13, 20]: 7 | Plant response rating, Barnyardgrass [14, 17]: 2 | Plant response rating, Barnyardgrass [14, 21]: 3 | Plant response rating, Barnyardgrass [14, 19]: 3 | Plant response rating, Barnyardgrass [14, 20]: 4 | Plant response rating, Rice (rice (Oryza sativa); [17]): 1 | Rice plant response rating (rice (Oryza sativa); [18]): 1 | Plant response rating, Rice (rice (Oryza sativa); [19]): 2 | Plant response rating, Rice (rice (Oryza sativa); [20]): 2 | Plant response rating, Ducksalad [15, 17]: 2 | Plant response rating, Ducksalad [15, 21]: 3 | Plant response rating, Ducksalad [15, 19]: 4 | Plant response rating, Ducksalad [15, 20]: 6

From patent US6525001B1, “Substituted pyrimidine and pyridine herbicides” (Mid-American Commercialization Corporation, priority 1997, dated 2003)
